Reference: patent publication US20210255193A1, “LYSINE REACTIVE PROBES AND USES THEREOF” (The Scripps Research Institute, priority 2017, published 2021)
Values belong to the compound of their own block, whether it stands above or below them.

Key:
[1] = target: T1, PSMC6 26S protease regulatory subunit 10B (Homo sapiens, UniProt P62333); experiment: competitive isoTOP-ABPP; assay type: binding; details: for isoTOP-ABPP ratio (R) at liganded lysine P62333_K72 / isoTOP-ABPP reactivity ratio at lysine P62333_K72: 50 uM, in vitro; for isoTOP-ABPP ratio (R) at liganded lysine P62333_K72: sol, 231; for isoTOP-ABPP reactivity ratio at lysine P62333_K72: 231 sol
T1 construct: isoTOP-ABPP experiments performed in cell lysates (in vitro); endogenous in cells; host or cells: soluble proteome of human cancer cell lines (MDA-MB-231, Ramos, Jurkat)
Outline: (§1)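 Probe: STP-alkyne, 0.1 mM, 1 h RT, after fragment pretreatment of lysate (esters 50 μM; guanidinylators 100 μM). Tags: light = compound, heavy = DMSO, via CuAAC. Replicates averaged if SD <60% of mean; otherwise lowest ratio used when any R <4.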

[2] = target: T2, EEF1A1 Elongation factor 1-alpha 1 (Homo sapiens, UniProt P68104); experiment: competitive isoTOP-ABPP; assay type: binding; details: for isoTOP-ABPP reactivity ratio at lysine P68104_K84 / isoTOP-ABPP ratio (R) at liganded lysine P68104_K84: 50 uM, in vitro; for isoTOP-ABPP reactivity ratio at lysine P68104_K84: 231 sol; for isoTOP-ABPP ratio (R) at liganded lysine P68104_K84: sol, 231; for isoTOP-ABPP ratio, lysine P68104_K84: 100 uM_231_sol_in vitro
T2 construct: isoTOP-ABPP experiments performed in cell lysates (in vitro); endogenous in cells; host or cells: soluble proteome of human cancer cell lines (MDA-MB-231, Ramos, Jurkat)
T2 sequence (P68104 1-462): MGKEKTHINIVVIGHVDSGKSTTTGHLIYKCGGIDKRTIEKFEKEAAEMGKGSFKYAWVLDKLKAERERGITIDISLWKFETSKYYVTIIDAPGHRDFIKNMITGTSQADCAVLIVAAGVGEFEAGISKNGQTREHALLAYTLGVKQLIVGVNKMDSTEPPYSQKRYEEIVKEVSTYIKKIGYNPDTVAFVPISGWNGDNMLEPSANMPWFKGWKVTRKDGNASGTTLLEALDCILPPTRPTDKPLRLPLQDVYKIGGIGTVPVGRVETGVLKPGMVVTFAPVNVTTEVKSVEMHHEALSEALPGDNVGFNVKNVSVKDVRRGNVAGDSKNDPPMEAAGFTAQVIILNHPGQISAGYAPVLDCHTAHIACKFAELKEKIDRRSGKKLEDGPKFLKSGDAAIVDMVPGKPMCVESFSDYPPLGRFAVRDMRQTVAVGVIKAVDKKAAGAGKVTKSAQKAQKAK
Outline: as §1

Structure (SMILES): CC(C)(C)OC(=O)NCCCC(=O)Oc1ccc([N+](=O)[O-])cc1[N+](=O)[O-] [fragment 41, 2,4-Dinitrophenyl 4-((tert-butoxycarbonyl)amino)butanoate]
isoTOP-ABPP ratio (R) at liganded lysine P62333_K72 [1]: 1.2

Structure (SMILES): O=C(CCc1cn(-c2ccccc2)nc1-c1ccccc1)Oc1ccc([N+](=O)[O-])cc1[N+](=O)[O-] [fragment 29, 2,4-Dinitrophenyl 3-(1,3-diphenyl-1H-pyrazol-4-yl)propanoate]
isoTOP-ABPP reactivity ratio at lysine P68104_K84 [2]: 20.0
isoTOP-ABPP reactivity ratio at lysine P62333_K72 [1]: 20.0

Structure (SMILES): Cn1cc(CC(=O)Oc2ccc([N+](=O)[O-])cc2[N+](=O)[O-])c2ccccc21 [fragment 32, 2,4-Dinitrophenyl 2-(1-methyl-1H-indol-3-yl)acetate]
isoTOP-ABPP reactivity ratio at lysine P68104_K84 [2]: 0.4
isoTOP-ABPP reactivity ratio at lysine P62333_K72 [1]: 1.4

Structure (SMILES): O=C(CCc1coc2cc(F)ccc2c1=O)Oc1ccc([N+](=O)[O-])cc1[N+](=O)[O-] [fragment 36, 2,4-Dinitrophenyl 3-(7-fluoro-4-oxo-4H-chromen-3-yl)propanoate]
isoTOP-ABPP ratio (R) at liganded lysine P68104_K84 [2]: 0.7

isoTOP-ABPP ratio, lysine P68104_K84 [2]: 1.2
Structure (SMILES): COC(=O)NC(=NC(=O)OCC1c2ccccc2-c2ccccc21)n1cccn1 [fragment 49, N-Methoxycarbonyl-N′-9-fluorenylmethoxycarbonyl-pyrazole-1-carboxamidine]

Structure (SMILES): O=C(Oc1ccc([N+](=O)[O-])cc1[N+](=O)[O-])c1cc(C(F)(F)F)cc(C(F)(F)F)c1 [fragment 31, 2,4-Dinitrophenyl 3,5-bis(trifluoromethyl)benzoate]
isoTOP-ABPP reactivity ratio at lysine P68104_K84 [2]: 0.4

isoTOP-ABPP ratio, lysine P68104_K84 [2]: 1.3
isoTOP-ABPP ratio, lysine P62333_K72 ([1]; 100 uM_231_sol_in vitro): 1.3
Structure (SMILES): CC(C)(C)OC(=O)N=C(NC(=O)OC(C)(C)C)n1cccn1 [fragment 50, reference compound]

Structure (SMILES): O=C(Oc1ccc([N+](=O)[O-])cc1[N+](=O)[O-])C(c1ccccc1)c1ccccc1 [fragment 30, 2,4-Dinitrophenyl 2,2-diphenylacetate]
isoTOP-ABPP reactivity ratio at lysine P68104_K84 [2]: 0.5

Structure (SMILES): O=C(ON1C(=O)CCC1=O)c1cc(C(F)(F)F)cc(C(F)(F)F)c1 [fragment 46, 3,5-Bis(trifluoromethyl)benzoic acid NHS ester]
isoTOP-ABPP ratio, lysine P62333_K72 ([1]; 50 uM_231_sol_in vitro): 0.9

Structure (SMILES): O=C(Oc1ccc([N+](=O)[O-])cc1[N+](=O)[O-])c1ccc(Oc2ccccc2)cc1 [fragment 39, 2,4-Dinitrophenyl 4-phenoxybenzoate]
isoTOP-ABPP ratio (R) at liganded lysine P62333_K72 [1]: 1.1

Structure (SMILES): O=C(Oc1ccc([N+](=O)[O-])cc1[N+](=O)[O-])c1ccc(-c2ccccc2)cc1 [fragment 37, 2,4-Dinitrophenyl [1,1′-biphenyl]-4-carboxylate]
isoTOP-ABPP ratio (R) at liganded lysine P68104_K84 [2]: 20.0
isoTOP-ABPP ratio (R) at liganded lysine P62333_K72 [1]: 0.9

Structure (SMILES): CC(=O)Oc1ccc([N+](=O)[O-])cc1[N+](=O)[O-] [fragment 43, 2,4-Dinitrophenyl acetate]
isoTOP-ABPP ratio (R) at liganded lysine P68104_K84 [2]: 0.7
isoTOP-ABPP ratio (R) at liganded lysine P62333_K72 [1]: 1.9

isoTOP-ABPP reactivity ratio at lysine P62333_K72 [1]: 20.0
Structure (SMILES): CCn1cc(C(=O)Oc2c(F)c(F)c(F)c(F)c2F)c(=O)c2ccc(C)nc21 [fragment 28, Pentafluorophenyl 1-ethyl-7-methyl-4-oxo-1,4-dihydro-1,8-naphthyridine-3-carboxylate]
